Laboratory results published in paper PMC6689897, “Drugging an undruggable pocket on KRAS” (Proceedings of the National Academy of Sciences of the …, 2019).
Where “and” joins values, the source holds several entries; their conditions need not be identical. Equal entries are not always repeated.

Key:
KRAS = KRAS (Homo sapiens, UniProt P01116, G12D); assay: Alpha Screen PPI assays, summary over KRAS interactions (SOS1, CRAF, PI3Kα); format: biochemical; settings: interaction not given
Text: Using biochemical assays, we investigated whether 1 inhibited 3 of the 4 PPIs important for KRAS cycling (Fig. 5 A, i–iii). Namely, 1) GDP-KRAS interaction with the catalytic site of SOS ([33]), 2) GTP-KRAS interaction with the allosteric site of SOS ([34]), and 3) GTP-KRAS interaction with downstream effectors (CRAF and PI3Kα). We were unable to establish a biochemical assay for the fourth intervention point, namely, 4) GTP-KRAS interaction with its GAPs (Fig. 5 A, iv). As a reference compound for these assays, we used the KRAS^G12C-specific covalent inhibitor ARS-1620 ([35]). Compound 1 inhibited all 3 RAS cycle intervention points (1 to 3) in a dose-dependent manner (Fig. 5 B–E) in the range of 100 to 770 nM (SI Appendix, Table S6).
(§1) 217 The coordinates and structure factors of the structures have been deposited at the
(§2) 218 Protein Data Bank with the accession codes PDB Code 6GJ5, 6GJ6, 6GJ7, 6GJ8.
(§3) 221 Measurements of various protein–protein interactions were performed using the Alpha
(§4) 222 Screen technology developed by Perkin Elmer. Recombinant RAS proteins (H-, N-, K-
(§5) 223 RAS variants; all KRAS variants are based on KRAS isoform 4B (uniprot id P01116-2);
(§6) 224 KRAS (G12D) 1-169, N-terminal 6His-tag, C-terminal avi-tag was from Xtal
(§7) 225 BioStructures, Inc., KRAS (G12C) 1-169, C-terminal avi-tag, biotinylated, mutations:
(§8) 226 C51S, C80L, C118S, NRAS(wt) 1-172, C-terminal avi-tag, biotinylated; HRAS(wt) 1-
(§9) 227 166, C-terminal avi-tag, biotinylated). Biotinylation was performed in vitro with
(§10) 228 recombinant BirA biotin-protein ligase as recommended by the manufacturer (Avidity
(§11) 229 LLC, Aurora, Colorado, USA). Interacting proteins such as SOS1 (564-1049, N-terminal
(§12) 230 GST-tag, TEV cleavage site), cRaf (1-303, N-terminal GST-tag, TEV cleavage site) and
(§13) 231 PI3KA- RBD (160-317, N-term-HIS_GST-tag) were expressed as glutathione S […]
(§14) 245 for 60 min in the dark at room temperature. Single oxygen induced fluorescence was
(§15) 246 measured at an Enspire multimode plate reader (Perkin Elmer) according to the
(§16) 247 manufacturer’s recommendations. Data were analyzed using the GraphPad Prism data […]

NCI-H358 cells = assay: pAKT quantification (Meso Scale Discovery); format: cell-based, human
Experimental: as §1, §2, §3, §4, §5, §6, §7, §8, §9
228 recombinant BirA biotin-protein ligase as recommended by the manufacturer (Avidity […]
as §13, §14, §15, §16
313 added according to manufacturer’s instructions. Fluorescence intensity was determined
314 using a fluorescence reader (2030 VICTOR X5, Perkin Elmer). […]
319 MAPK pathway signaling (pERK, pAKT quantification) […]

GTP-KRASwt::CRAF [1] = assay: Alpha Screen PPI assay; format: biochemical, human
Experimental: as §3, §4, §5, §6, §7, §8, §9, §10, §11, §12
(§17) 231 PI3KA- RBD (160-317, N-term-HIS_GST-tag) were expressed as glutathione S
(§18) 232 transferase (GST) fusions. Accordingly, the Alpha Screen beads were glutathione coated
(§19) 233 Alpha Lisa acceptor beads (Perkin Elmer AL 109 R) and Alpha Screen Streptavidin
(§20) 234 conjugated donor beads (Perkin Elmer 6760002L). Nucleotides were purchased from
(§21) 236 interaction assays were carried out in PBS, containing 0.1% bovine serum albumin,
(§22) 237 0,05% Tween-20 and 10 µM of the corresponding nucleotide. Assays were carried out in
(§23) 238 white ProxiPlate-384 Plus plates (Perkin Elmer #6008280) in a final volume of 20 µL. In
(§24) 239 brief, biotinylated RAS proteins (10 nM final concentration) and GST-SOS1, GST-PI3K
(§25) 240 or GST-CRAF (10 nM final) were mixed with glutathione acceptor beads (5 µg/mL final
(§26) 241 concentration) in buffer, containing the corresponding nucleotides (GDP or GTP for
(§27) 242 assays containing SOS1, only GTP for interaction assays containing PI3K or CRAF) and
(§28) 243 were incubated for 30 min at room temperature. After addition of streptavidin donor
(§29) 244 beads (5 µg/mL final concentration) under green light, the mixture was further incubated
as §14, §15
(§30) 247 manufacturer’s recommendations. […]

GTP-KRASG12D::PI3Kα = molecular target: T1, GTP-KRASG12D::PI3Kα (Homo sapiens, UniProt P01116, G12D); assay: Alpha Screen PPI assay; format: biochemical; settings: duplicate, read-out: IC50 GTP-KRASG12D::PI3K
T1 construct: KRAS (G12D) 1-169, N-terminal 6His-tag, C-terminal avi-tag was from Xtal; 6His-tag (N); purchased Xtal BioStructures, Inc
Experimental: as §3, §4, §5, §6, §7, §8, §9, §10, §11, §12, §17, §18, §19, §20, §21, §22, §23, §24, §25, §26, §27, §28, §29, §14, §15, §30

GTP-KRASwt::CRAF [2] = molecular target: T2, GTP-KRASwt::CRAF (Homo sapiens, UniProt P01116); assay: Alpha Screen PPI assay; format: biochemical; settings: Alpha Screen, duplicate
T2 construct: biotin (attachment tag not described)
Experimental: as §3, §4, §5, §6, §7, §8, §9, §10, §11, §12, §17, §18, §19, §20, §21, §22, §23, §24, §25, §26, §27, §28, §29, §14, §15, §30

GTP-KRASG12D::CRAF = molecular target: T3, GTP-KRASG12D::CRAF (Homo sapiens, UniProt P01116, G12D); assay: Alpha Screen PPI assay; format: biochemical; settings: duplicate
T3 construct: KRAS (G12D) 1-169, N-terminal 6His-tag, C-terminal avi-tag was from Xtal; 6His-tag (N); purchased Xtal BioStructures, Inc
Experimental: as §3, §4, §5, §6, §7, §8, §9, §10, §11, §12, §17, §18, §19, §20, §21, §22, §23, §24, §25, §26, §27, §28, §29, §14, §15, §30

GTP-KRASwt::PI3Kα = molecular target: T4, GTP-KRASwt::PI3Kα (Homo sapiens, UniProt P01116); assay: Alpha Screen PPI assay; format: biochemical; settings: duplicate, read-out: IC50 GTP-KRASwt ::PI3K
T4 construct: biotin (attachment tag not described)
Experimental: as §3, §4, §5, §6, §7, §8, §9, §10, §11, §12, §17, §18, §19, §20, §21, §22, §23, §24, §25, §26, §27, §28, §29, §14, §15, §30

GTP-KRASwt::SOS1 = molecular target: T5, GTP-KRASwt::SOS1 (Homo sapiens, UniProt P01116); assay: Alpha Screen PPI assay; format: biochemical; settings: duplicate
T5 construct: biotin (attachment tag not described)
Experimental: as §3, §4, §5, §6, §7, §8, §9, §10, §11, §12, §17, §18, §19, §20, §21, §22, §23, §24, §25, §26, §27, §28, §29, §14, §15, §30

GCP-KRAS^G12D,C118S = GCP-KRAS^G12D,C118S (Homo sapiens, UniProt P01116, C118S/G12D); assay: NMR KD, T35 construct (G12D, C118S), GCP-bound; format: binding; settings: versus 17

| SMILES | IC50 (KRAS) | pAKT levels (NCI-H358 cells; high serum conditions) | pAKT levels (NCI-H358 cells; starved 24 h low serum, 2 h compound, then EGF) | selectivity of inhibition biochemically, KRAS^wt versus KRAS^G12C binding to CRAF (GTP-KRASwt::CRAF [1]) | IC50 (GTP-KRASG12D::PI3Kα) | IC50 (GTP-KRASwt::CRAF [2]) | IC50 (GTP-KRASG12D::CRAF) | IC50 (GTP-KRASwt::PI3Kα) | IC50 (GTP-KRASwt::SOS1) | more potent than nonphenolic matched molecular pair 17 (GCP-KRAS^G12D,C118S) |
| --- | --- | --- | --- | --- | --- | --- | --- | --- | --- | --- |
| Cn1cnc(Cn2ccc3ccc(CNCc4[nH]c5ccccc5c4[C@H]4NC(=O)c5ccc(O)cc54)cc32)c1 [Compound 1] | 450 nM | no reduction of pAKT levels | dose-dependently reduced | 4 fold | 500 nM | 740 nM | 770 nM and 180 nM | 250 nM | 490 nM | – |
| CN(C)Cc1[nH]c2ccccc2c1[C@H]1NC(=O)c2ccc(O)cc21 [Compound 18] | – | – | – | – | – | – | – | – | – | 6 fold |
